Assay results from paper PMC7247425, “MRP1-Collateral Sensitizers as a Novel Therapeutic Approach in Resistant Cancer Therapy: An In Vitro and In Vivo Study in Lung Resistant Tumor” (International Journal of Molecular Sciences, 2020).

Experiments:
A549/DX cells [1] = assay: Cell viability (MTT) of A549/DX cells at 72 h, alone and in co-administration; assay type: cell-based, human; settings: for Cell viability / cytotoxic effect, compound alone: 10 μM; for Cell viability in co-administration with MRP1 inhibitor MK571: compound 10 μM + MK571 25 μM; for Cytotoxic effect in co-administration with cis-Pt: compound 10 μM + cis-Pt 25 μM
Protocol: Indeed, the accurate detection of cell viability in A549 cells was critical in calculating the SR in a reliable manner.
First, we wondered if there was a correlation between the inhibition of the MRP1 protein and the CS properties of the compounds.
(§1) The determination of cell growth was performed using an MTT assay at 24 or 72 h. On day 1, 10,000 cells/well were seeded into 96-well plates in a volume of 100 μL. […] In all the experiments, the various drug solvents (ethanol, DMSO) were added in each control to evaluate a possible solvent cytotoxicity. After the established incubation time with drugs, 10 μL MTT (0.5 mg/mL) was added to each well, and after 3 h incubation at 37°C, the supernatant was removed. The formazan crystals were solubilized using 100 μL of DMSO and the absorbance values at 570 and 630 nm were determined on the microplate reader Victor 3 from PerkinElmer Life Sciences. The absorbance of the untreated cells was considered equal to 100% cell viability; the viability of cells measured in each experimental condition was expressed as a percentage of viable cells in the considered condition vs. the viability of the untreated cells.

A549/DX = assay: Mitochondrial ROS production in A549/DX (MitoSOX Red); assay type: cell-based, human; settings: 24 h; for Mitochondrial ROS production with cis-Pt: 10 μM + cis-Pt 25 μM; for Mitochondrial ROS production, compound alone / Mitochondrial ROS production with Mitotempol: 10 μM; for Mitochondrial ROS production with Mitotempol: Mitotempol 10 mM
Protocol: An increase in ROS of mitochondrial origin is particularly effective in killing multidrug-resistant cells. To investigate whether the ROS were of mithocondrial origin, the same experiment was set up evaluating ROS production at 24 h with Mitotempol, the scavenger of mithocondrial ROS.
Here, 1 × 10^6 cells were re-suspended in a final volume of 0.5 mL PBS and incubated for 30 min at 37 °C with 5 μM of the fluorescent probe MitoSOX Red (Invitrogen Life Technology, Milano, Italy) in the dark. Cells were then centrifuged at 13,000× g at 37 °C and re-suspended in 0.5 mL PBS. The fluorescence of each sample, considered as the index of ROS levels, was read at 510 (λ excitation) and 580 nm (λ emission) using a Synergy HT Multi-Mode Microplate Reader (Bio-Tek Instruments). The results were expressed as nmol mitochondrial ROS/mg cell proteins. A preliminary titration curve was set up by incubating the cells for 1 h with the cells treated with serial dilutions (10–0.01 nM) of the pro-oxidant agent menadione.

A549/DX cells [2] = assay: Cytotoxicity in A549/DX and parental A549 cells, selectivity ratio; assay type: cell-based, human; settings: cytotoxicity in parental A549 vs resistant A549/DX cells, 24 h
From the text: Therefore, A549/DX cells were selected as a model to investigate the CS properties of our compounds. Firstly, in order to confirm the data observed on the “pure” model MDCK-MRP1, we tested, in the same experimental conditions, the SR of F397, F400, and F421 by measuring their cytotoxicity in the resistant A549/DX cells and their parental counterpart A549, obtaining an SR ≥ 2 for all (SR = 2.5 for derivative F397, SR = 2.1 for F400, and SR = 2 for F421).
Since the doubling time of A549 cells is 22 h and the doubling time of A549/DX cells is 61 h (data not shown), in this first experimental set we used a 24 h time, i.e., the most suitable for A549 cells’ cytotoxicity as performed in the “pure” MRP1 model. Indeed, the accurate detection of cell viability in A549 cells was critical in calculating the SR in a reliable manner. The following experiments, all performed in A549/DX cells, were performed after 72 h, i.e., the best timing to detect a cytotoxic effect on the slowly growing resistant population.
The determination of cell growth was performed using an MTT assay at 24 or 72 h. On day 1, 10,000 cells/well were seeded into 96-well plates in a volume of 100 μL. On day 2, the drugs concentrations (0.1, 1, 10, 25 μM) were added. In all the experiments, the various drug solvents (ethanol, DMSO) were added in each control to evaluate a possible solvent cytotoxicity. After the established incubation time with drugs, 10 μL MTT (0.5 mg/mL) was added to each well, and after 3 h incubation at 37°C, the supernatant was removed. The formazan crystals were solubilized using 100 μL of DMSO and the absorbance values at 570 and 630 nm were determined on the microplate reader Victor 3 from PerkinElmer Life Sciences. The absorbance of the untreated cells was considered equal to 100% cell viability; the viability of cells measured in each experimental condition was expressed as a percentage of viable cells in the considered condition vs. the viability of the untreated cells.

sigma-2 receptors = settings: cited from earlier work; for Ki: read-out: Ki towards sigma-2 receptors
MRP1 = MRP1 (Homo sapiens, UniProt P33527); assay: Calcein-AM transport inhibition in MDCK-MRP1 cells (MRP1 activity)
Protocol: Each cell line (30,000 cells per well) was seeded into a black CulturePlate 96/well plate with a 100 μL medium and allowed to become confluent overnight. […] In these experimental conditions, the Calcein cell accumulation in the absence and in the presence of the tested compounds was evaluated and the fluorescence basal level was estimated with the untreated cells. In treated wells, the increase in fluorescence with respect to the basal level was measured. EC50 values were determined by fitting the fluorescence increase percentage vs. log(dose).

MDCK-MRP1 cells = assay: Antiproliferative MTT assay in MDCK-wt and MDCK-MRP1 cells, selectivity ratio; assay type: cell-based, canine; settings: EC50 of MDCK cells/EC50 of MDCK-MRP1 cells
Protocol: Within the search for novel CS agents acting on MRP1 proteins, the compounds selected among the different series of sigma-2 ligands were investigated for their activity at MRP1, paralleled with their cytotoxicity in the parental Madin–Darby canine kidney (MDCK-wt) cells and in the MDR-derived cells (MDCK-MRP1) for the determination of their SR (EC50 parental cells/EC50 MDR cells). The activity at the MRP1 pump was determined measuring the transport inhibition of the pro-fluorescent probe Calcein-AM, an MRP1 substrate, in the MRP1-overexpressing cell line (MDCK-MRP1) by the in vitro biological assay usually performed to study an MRP1 interaction. […] The SR was measured as the EC50 of the MDCK cells/EC50 of the MDCK-MRP1 cells.
as §1

Sequence of MRP1 (P33527 whole entry): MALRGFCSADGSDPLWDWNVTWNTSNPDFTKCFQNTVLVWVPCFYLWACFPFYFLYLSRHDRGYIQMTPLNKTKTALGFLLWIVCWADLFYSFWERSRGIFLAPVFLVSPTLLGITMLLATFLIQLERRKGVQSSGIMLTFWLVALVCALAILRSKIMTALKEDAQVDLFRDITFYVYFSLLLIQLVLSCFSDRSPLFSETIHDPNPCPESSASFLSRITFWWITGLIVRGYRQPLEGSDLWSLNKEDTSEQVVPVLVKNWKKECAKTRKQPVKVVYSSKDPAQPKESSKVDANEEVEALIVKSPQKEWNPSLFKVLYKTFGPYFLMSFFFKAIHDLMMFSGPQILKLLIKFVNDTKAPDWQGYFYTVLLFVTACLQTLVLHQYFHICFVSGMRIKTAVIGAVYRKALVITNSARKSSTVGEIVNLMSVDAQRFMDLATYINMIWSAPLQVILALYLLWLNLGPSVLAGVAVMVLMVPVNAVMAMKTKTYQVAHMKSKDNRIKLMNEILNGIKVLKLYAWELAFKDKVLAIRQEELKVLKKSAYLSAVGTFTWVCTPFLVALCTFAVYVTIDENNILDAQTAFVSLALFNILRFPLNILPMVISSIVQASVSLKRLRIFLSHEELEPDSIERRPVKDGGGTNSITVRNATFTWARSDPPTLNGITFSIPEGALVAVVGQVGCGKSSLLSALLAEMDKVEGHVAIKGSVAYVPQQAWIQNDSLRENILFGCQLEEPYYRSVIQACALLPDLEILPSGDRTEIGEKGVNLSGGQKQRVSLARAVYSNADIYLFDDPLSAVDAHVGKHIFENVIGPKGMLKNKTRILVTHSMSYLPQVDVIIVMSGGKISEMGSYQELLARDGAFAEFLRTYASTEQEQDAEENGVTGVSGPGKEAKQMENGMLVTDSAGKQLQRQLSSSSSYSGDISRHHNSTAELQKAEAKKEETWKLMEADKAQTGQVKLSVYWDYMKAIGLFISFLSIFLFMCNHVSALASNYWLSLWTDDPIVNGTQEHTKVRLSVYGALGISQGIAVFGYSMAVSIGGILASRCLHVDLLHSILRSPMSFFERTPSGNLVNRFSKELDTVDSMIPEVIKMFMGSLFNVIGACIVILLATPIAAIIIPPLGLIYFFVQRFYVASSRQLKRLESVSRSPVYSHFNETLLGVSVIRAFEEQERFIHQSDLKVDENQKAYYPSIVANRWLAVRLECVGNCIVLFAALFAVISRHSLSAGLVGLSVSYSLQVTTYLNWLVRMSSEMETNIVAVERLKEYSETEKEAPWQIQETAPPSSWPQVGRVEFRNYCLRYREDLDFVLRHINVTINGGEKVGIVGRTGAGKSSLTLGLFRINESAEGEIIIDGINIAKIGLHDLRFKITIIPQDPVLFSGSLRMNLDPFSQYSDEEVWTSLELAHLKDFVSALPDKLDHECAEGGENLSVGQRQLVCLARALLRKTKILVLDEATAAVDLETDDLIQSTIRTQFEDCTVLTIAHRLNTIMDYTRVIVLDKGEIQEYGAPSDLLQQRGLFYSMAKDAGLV

SMILES | Cell viability / cytotoxic effect, compound alone (A549/DX cells [1]) | Cell viability in co-administration with MRP1 inhibitor MK571 (A549/DX cells [1]) | Cytotoxic effect in co-administration with cis-Pt (A549/DX cells [1]) | Mitochondrial ROS production with cis-Pt (A549/DX) | Mitochondrial ROS production, compound alone (A549/DX) | Mitochondrial ROS production with Mitotempol (A549/DX) | SR (selectivity ratio) (A549/DX cells [2]) | Ki (sigma-2 receptors) [µM] | EC50 (MRP1) [µM] | SR (selectivity ratio) (MDCK-MRP1 cells) | sigma-2 receptor affinity (sigma-2 receptors)
COc1cc2c(cc1OC)CN(CCCCc1cn(-c3ccc(F)cc3)c3ccccc13)CC2 [F397, 6,7-dimethoxy-2-{4-[1-(4-fluorophenyl)-1H-indol-3-yl]butyl}-1,2,3,4-tetrahydroisoquinoline] | cytotoxic effect on their own | reverted by the MRP1 inhibitor MK571 | drastically increases upon co-administration with cis-Pt | enforced by the concurrent administration of cis-Pt | increased the intramithocondrial ROS | reversed by Mitotempol | 2.5 | 0.00534 | 16.7 ± 3.2 | 3.41 | 
COc1cc2c(cc1OC)CN(C(=O)CCC1CCCc3c(OC)cccc31)CC2 (stereo not drawn) [F400, 6,7-dimethoxy-2-[3-(5-methoxy-1,2,3,4-tetrahydronaphthalen-1-yl)propionyl]-1,2,3,4 tetrahydroisoquinoline] | cytotoxic effect on their own | reverted by the MRP1 inhibitor MK571 | drastically increases upon co-administration with cis-Pt | enforced by the concurrent administration of cis-Pt | increased the intramithocondrial ROS | reversed by Mitotempol | 2.1 |  | 17.6 ± 3.8 | 5.91 | devoid of sigma-2 receptor affinity
COc1ccc(CNCCCCc2cn(-c3ccc(F)cc3)c3ccccc23)cc1OC [F421, N-{4-[1-(4-fluorophenyl)-1H-indol-3-yl]butyl}-3,4-dimethoxybenzylamine] | cytotoxic effect on their own | reverted by the MRP1 inhibitor MK571 | drastically increases upon co-administration with cis-Pt | enforced by the concurrent administration of cis-Pt | increased the intramithocondrial ROS | reversed by Mitotempol | 2 | 0.169 | 28 ± 4.8 | 2.47 | 
